# Measured values: patent US20140066365A1, “USE OF CALIXARENES ASSOCIATED WITH AN ANTIBIOTIC IN THE TREATMENT OF BACTERIAL INFECTIONS” (priority 2011, published 2014)
# Several values for one entry are separate records, joined by “and”; a condition that tells them apart may be missing. Equal values may be shown once. Read-outs that look alike come from different tables or passages of the source.
# Key:
# [1] = tested on: Pseudomonas aeruginosa strain ATCC 27853 (wild type); test: MIC of the compounds used alone, microdilution in a liquid medium (CLSI); assay type: cell-based; settings: P. aeruginosa ATCC 27853
# Text: (§1) The MICs of the antibiotics were previously defined for each strain, by the method of microdilution in a liquid medium (CLSI (Clinical and Laboratory Standards Institute), 2003).
# [2] = tested on: Pseudomonas aeruginosa strain PaR3; test: as above; assay type: cell-based
# Text: as §1
# [3] = tested on: Staphylococcus aureus strain ATCC 29213 (wild type); test: as above; assay type: cell-based; settings: S. aureus ATCC 29213
# Text: as §1
# [4] = tested on: mucoid strain of Pseudomonas aeruginosa PaR5; test: as above; assay type: cell-based
# Text: as §1
# [5] = as above; assay type: cell-based, Staphylococcus aureus; settings: Staphylococcus aureus, MRSA; antibiotic alone (second value of cell); SaR4; read-out: MIC
# Text: as §1
# [6] = tested on: MRSA strain having a resistance to the aminoglycosides and fluoroquinolones (SaR3); test: as above; assay type: cell-based, Staphylococcus aureus; settings: SaR3
# Text: as §1
# [7] = tested on: MRSA strain without associated resistance (SaR1); test: as above; assay type: cell-based, Staphylococcus aureus; settings: SaR1
# Text: as §1
# [8] = tested on: Pseudomonas aeruginosa strain PaR2; test: microbe, parasite or virus in culture; assay type: cell-based
# Text: as §1
# [9] = tested on: EcR1: Penicillinase-Producing Escherichia coli without Associated Resistance; test: Antibiogram by the disk diffusion technique; assay type: cell-based
# Description: 5.1 EcR1: Penicillinase-Producing Escherichia coli without Associated Resistance The bacterial and antibiogramidentification is carried out by the VITEK 2 system (bioMérieux) and by the disk diffusion technique.
# [10] = tested on: EcR3: ESBL-Producing Escherichia coli; test: Antibiogram by the disk diffusion technique; assay type: cell-based
# Description: The bacterial and antibiogramidentification is carried out by the VITEK 2 system (bioMerieux) and by the disk diffusion technique
# [11] = tested on: SaR1: Meticillin-Resistant Staphylococcus aureus without Associated Resistance; test: Antibiogram, MIC by the VITEK 2 system; assay type: cell-based; settings: SaR1; for CA-SFM Interpretation: Cc CA-SFM 2011; for EUCAST Interpretation: Cc EUCAST 2011; for Results: from MIC
# Description: (§2) The bacterial and antibiogramidentification is carried out by the VITEK 2 system (bioMérieux)
# [12] = tested on: PaR5: Pseudomonas aeruginosa; test: Antibiogram by the disk diffusion technique; assay type: cell-based
# Description: (§3) The bacterial and antibiogramidentification is carried out by the VITEK 2 system (bioMérieux) and by the disk diffusion technique
# [13] = tested on: SaR3: Meticillin-Resistant Staphylococcus aureus; test: Antibiogram by the disk diffusion technique; assay type: cell-based; settings: for CA-SFM Interpretation: Cd CA-SFM 2011; for Diameter: Table E1; for Results: Table E1, against Dmin Dmax; for diameter in mm: Table E2
# Description: as §3
# [14] = tested on: SaR4: Meticillin-Resistant Staphylococcus aureus; test: Antibiogram, MIC by the VITEK 2 system; assay type: cell-based; settings: SaR4; for CA-SFM Interpretation: Cc CA-SFM 2011; for EUCAST Interpretation: Cc EUCAST 2011; for MIC: Staphylococcus aureus, read-out: MIC
# Description: as §3
# [15] = tested on: PaR2: Pseudomonas aeruginosa; assay type: cell-based
# Description: as §3
# [16] = tested on: Escherichia coli, Staphylococcus aureus and Pseudomonas aeruginosa strains; test: Chessboard technique, summary statements over all strains and combinations tested; assay type: cell-based; settings: strain not stated
# Text: 1.3. Procedure: Chessboard Technique
# The same procedure is followed for the Cx1. […] Thus 64 ATB/Cx1 combinations are obtained.
# The FIC (Fractional Inhibitory Concentration Index) value is defined by the following formula: […]
# When FIC≦0.5, there is a synergistic effect between antibiotic A and antibiotic B.
# When 0.5<FIC≦1, there is an additive effect between antibiotic A and antibiotic B.
# When 1<FIC≦4, there is an indifferent effect between antibiotic A and antibiotic B.
# When FIC>4, there is an antagonistic effect between antibiotic A and antibiotic B.
# For each strain and each antibiotic/Cx1 combination, the experiments were repeated a minimum of 3 times.
# [17] = tested on: SaR1: Meticillin-Resistant Staphylococcus aureus without Associated Resistance; test: Antibiogram, inhibition diameter (Table D1); assay type: cell-based; settings: for Results: from diameter, against Dmin Dmax
# Description: as §2
# [18] = tested on: MRSA strain having a resistance to the aminoglycosides, fluoroquinolones, macrolides-lincosamides-synergistins and ofloxacin (SaR4); test: MIC of the compounds used alone, microdilution in a liquid medium (CLSI); assay type: cell-based, Staphylococcus aureus; settings: SaR4
# Text: as §1
# [19] = tested on: ESBL-producing strain of Escherichia coli, having an associated resistance to the aminoglycosides (EcR3); test: as above; assay type: cell-based; settings: Cx1 alone (first value of cell)
# Text: as §1
# [20] = tested on: Escherichia coli strain ATCC 25922 (wild type); test: as above; assay type: cell-based; settings: E. coli ATCC 25922
# Text: as §1
# [21] = tested on: cephalosporinase-hyperproducing strain of Escherichia coli (EcR2); test: as above; assay type: cell-based; settings: Cx1 alone (first value of cell)
# Text: as §1
# [22] = tested on: penicillinase-producing strain of Escherichia coli without associated resistance (EcR1); test: as above; assay type: cell-based; settings: Cx1 alone (first value of cell)
# Text: as §1
# [23] = Pseudomonas aeruginosa, antibiotic alone (second value of cell), read-out: MIC
# [24] = Staphylococcus aureus, MRSA, antibiotic alone (second value of cell), read-out: MIC
# [25] = antibiotic alone (second value of cell)
# [26] = Cx1 alone (first value of cell)
compound,measurement,setting,value
C[C@@H]1O[C@@H]1P(=O)(O)O [Fosfomycin],MIC,"[1]; Pseudomonas aeruginosa, ATCC27853, antibiotic alone (second value of cell), read-out: MIC",16 mg/L
same,MIC,[2]; [23],> 64 mg/L
same,MIC,"[3]; Staphylococcus aureus, ATCC29213, antibiotic alone (second value of cell), read-out: Initial MICs",8 mg/L
same,MIC,[4]; [23],16 mg/L
same,MIC,[5],128 mg/L
same,MIC,[6]; [24],16 mg/L
same,MIC,[7]; [24],2 mg/L
same,MIC,[8]; [23],64 mg/L
same,MIC mg/L (diameter in mm),"[9]; EcR1, cells that print a diameter, Table A2",24 mm
same,CA-SFM Interpretation,"[9]; EcR1, diameter against CA-SFM 2011 limits",Susceptible
same,CLSI Interpretation,"[9]; EcR1, diameter against CLSI 2011 limits",Susceptible
same,Diameter,"[9]; EcR1, disk diffusion, Table A1",24 mm
same,Results,"[9]; EcR1, interpretation of the diameter against Dmin Dmax, Table A1",Susceptible
same,CA-SFM Interpretation,[10]; Cd CA-SFM 2011,Susceptible
same,CLSI Interpretation,[10]; Cd CLSI 2011,Susceptible
same,Diameter,[10]; Table C1,23 mm
same,Results,"[10]; Table C1, against Dmin Dmax",Susceptible
same,diameter in mm,[10]; Table C2,23 mm
same,CA-SFM Interpretation,[11],Susceptible
same,EUCAST Interpretation,[11],Susceptible
same,Results,[11]; Table D1,Susceptible
same,MIC mg/L,[11]; Table D2,≦8 mg/L
same,MIC,"[11]; Staphylococcus aureus, Table D1, read-out: MIC",≤ 8 mg/L
same,Diameter,"[12]; PaR5, Table I1",30 mm
same,Results,"[12]; PaR5, Table I1, against Dmin-Dmax",Susceptible
same,diameter in mm,"[12]; disk diffusion inhibition diameter, strain PaR5",30 mm
same,CA-SFM Interpretation,"[12]; disk diffusion, PaR5, versus critical diameter CA-SFM 2011",Susceptible
same,CA-SFM Interpretation,[13],Susceptible
same,Diameter,[13],26 mm
same,Results,[13],Susceptible
same,diameter in mm,[13],26 mm
same,Results,"[14]; Table F1, MIC",Resistant
same,CA-SFM Interpretation,[14]; from MIC,Resistant
same,EUCAST Interpretation,[14]; from MIC,Resistant
same,MIC,[14]; Table F1,≥ 64 mg/L
same,MIC,"[14]; Table F2, MIC",≥ 64 mg/L
same,CA-SFM Interpretation,[15]; Cd CA-SFM 2011,Resistant
same,Diameter,[15]; Table G1,13 mm
same,Results,"[15]; Table G1, against Dmin-Dmax",Resistant
same,diameter in mm,[15]; Table G2,13 mm
same,interaction between the antibiotic and Cx1,[16],synergism
same,Diameter,[17],40 mm
same,Results,[17],Susceptible
CC1(C)S[C@@H]2[C@H](NC(=O)Cc3ccccc3)C(=O)N2[C@H]1C(=O)O [Penicillin G],Initial MICs,[3]; [25],1 mg/L
same,MIC,[6]; [25],0.5 mg/L
same,MIC,[18]; [25],4 mg/L
same,MIC,[7]; [25],0.5 mg/L
same,CA-SFM Interpretation,[11],Resistant
same,CLSI Interpretation,[11]; Cc CLSI 2011,Resistant
same,EUCAST Interpretation,[11],Resistant
same,MIC mg/L,[11]; Table D1,≧0.5 mg/L
same,Results,[11]; Table D1,Resistant
same,MIC mg/L,[11]; Table D2,≧0.5 mg/L
same,CA-SFM Interpretation,[13],Resistant
same,CLSI Interpretation,[13]; Cd CLSI 2011,Resistant
same,EUCAST Interpretation,[13]; Cd EUCAST 2011,Resistant
same,Diameter,[13],26 mm
same,Results,[13],Resistant
same,diameter in mm,[13],26 mm
same,Results,"[14]; Table F1, MIC",Resistant
same,CA-SFM Interpretation,[14]; from MIC,Resistant
same,CLSI Interpretation,"[14]; from MIC, Cc CLSI 2011",Resistant
same,EUCAST Interpretation,[14]; from MIC,Resistant
same,Diameter,[17],28 mm
same,Results,[17],Resistant
para-guanidinoethylcalix[4]arene [Cx1],Initial MICs,[19],2 mg/L
same,Initial MICs (mg/L),[19],2/2 mg/L
same,Initial MICs,[20]; [26],4 mg/L and 2 mg/L
same,Initial MICs (mg/L),[20]; [26],4/4 mg/L
same,"Initial MICs (mg/L), Cx1",[20]; Cx1 alone,4 mg/L
same,MIC,[1]; [26],32 mg/L
same,"Initial MICs (mg/L), Cx1",[1]; Cx1 alone,32/32 mg/L and 32 mg/L
same,MIC,[2]; [26],32 mg/L
same,MIC mg/L,[2]; [26],32/32 mg/L
same,Initial MICs,[3]; [26],8 mg/L
same,Initial MICs (mg/L),[3]; [26],8/8 mg/L
same,"Initial MICs (mg/L), Cx1",[3]; Cx1 alone,8 mg/L
same,Initial MICs,[21],2 mg/L
same,Initial MICs (mg/L),[21],2/2 mg/L
same,MIC,[4]; [26],32 mg/L
same,MIC mg/L,[4]; [26],32/32 mg/L
same,Initial MICs,[22],2 mg/L
same,MIC,[6]; [26],8 mg/L
same,MIC mg/L,[6]; [26],8/8 mg/L
same,MIC,[18]; [26],8 mg/L
same,MIC,[7]; [26],8 mg/L
same,MIC,[8]; [26],32 mg/L
